From the NIST ThermoML archive (doi:10.1021/je0500734)

Tests used:
[1] = 101.33 kPa, Liquid; for speed of sound: acoustic time of flight gauge
[2] = xn = mol fraction of the nth substance listed; conditions: 101.33 kPa, Liquid, x1 = 1

C[N+](=O)[O-] [nitromethane]
[1]
Conditions | kinematic viscosity [m2/s] | mass density [kg/m3] | speed of sound [m/s] | viscosity [mPa·s]
293.15 K | 6.01e-07 | 1137.21 | 1337.6 | –
295.15 K | 5.77e-07 | 1133.14 | 1329.5 | –
298.15 K | 5.62e-07 | 1130.42 | 1317.4 | –
300.15 K | 5.47e-07 | 1127.55 | 1309.4 | –
301.15 K | – | 1126.24 | 1305.3 | 0.6091
301.3 K | – | 1126.04 | – | 0.6074
303.15 K | 5.25e-07 | 1123.49 | 1297.3 | –
305.15 K | 5.1e-07 | 1120.82 | 1289.2 | –
306.15 K | – | 1119.36 | 1285.2 | 0.5636
306.3 K | – | 1119.15 | – | 0.5623
308.15 K | 4.89e-07 | 1116.54 | 1277.1 | –

CCCCCO [pentan-1-ol]
[1]
Conditions | mass density [kg/m3] | speed of sound [m/s] | viscosity [mPa·s]
293.15 K | 815.09 | 1290.7 | –
295.15 K | 812.74 | 1282.1 | –
298.15 K | 811.4 | 1273.6 | –
300.15 K | 809.72 | 1266.7 | –
301.15 K | 808.96 | 1263.3 | 3.113
303.15 K | 807.41 | 1256.4 | –
303.5 K | 807.33 | – | 2.997
305.15 K | 805.78 | 1249.4 | –
306.15 K | 805.17 | 1246.2 | 2.686
307.5 K | 803.76 | – | 2.57
308.15 K | 803.71 | 1239.3 | –

[1], Capillary tube (Ostwald / Ubbelohde) method
Conditions | kinematic viscosity [m2/s]
293.15 K | 4.96e-06
295.15 K | 4.444e-06
298.15 K | 4.223e-06
300.15 K | 3.942e-06
303.15 K | 3.635e-06
305.15 K | 3.45e-06
308.15 K | 3.129e-06

[2H]OCCCCC [pentan-1-ol-d]
[1]
Conditions | mass density [kg/m3] | speed of sound [m/s] | viscosity [mPa·s]
293.15 K | 821.69 | 1282.3 | –
295.15 K | 819.5 | 1273.7 | –
298.15 K | 818.04 | 1265.1 | –
300.15 K | 816.42 | 1258.3 | –
301.3 K | 815.63 | – | 3.118
303.15 K | 814.24 | 1248.5 | –
305.15 K | 813.1 | 1241.1 | –
306.3 K | 811.88 | – | 2.685
308.15 K | 810.47 | 1230.8 | –

[1], Capillary tube (Ostwald / Ubbelohde) method
Conditions | kinematic viscosity [m2/s]
293.15 K | 4.99e-06
295.15 K | 4.458e-06
298.15 K | 4.238e-06
300.15 K | 3.969e-06
303.15 K | 3.685e-06
305.15 K | 3.456e-06
308.15 K | 3.148e-06

C[N+](=O)[O-] [nitromethane] + [2H]OCCCCC
[2]
Conditions | mass density [kg/m3] | viscosity [mPa·s]
301.3 K | 1126.04 | 0.6074
306.3 K | 1119.15 | 0.5623
